According to patent publication US12139477B2, “Compounds, salts thereof and methods for treatment of diseases” (ACADIA PHARMACEUTICALS INC., priority 2017, dated 2024):

What follows are molecules tested against 5HT2A (Homo sapiens, UniProt P28223) (assay: Receptor Selection and Amplification (R-SAT) functional assay). Details: NIH3T3 cells; Ki from IC50 by Cheng and Prussoff; read-out: 5-HT2a (pKi) (R-SAT) (converted).
Sequence of 5HT2A (P28223 whole entry): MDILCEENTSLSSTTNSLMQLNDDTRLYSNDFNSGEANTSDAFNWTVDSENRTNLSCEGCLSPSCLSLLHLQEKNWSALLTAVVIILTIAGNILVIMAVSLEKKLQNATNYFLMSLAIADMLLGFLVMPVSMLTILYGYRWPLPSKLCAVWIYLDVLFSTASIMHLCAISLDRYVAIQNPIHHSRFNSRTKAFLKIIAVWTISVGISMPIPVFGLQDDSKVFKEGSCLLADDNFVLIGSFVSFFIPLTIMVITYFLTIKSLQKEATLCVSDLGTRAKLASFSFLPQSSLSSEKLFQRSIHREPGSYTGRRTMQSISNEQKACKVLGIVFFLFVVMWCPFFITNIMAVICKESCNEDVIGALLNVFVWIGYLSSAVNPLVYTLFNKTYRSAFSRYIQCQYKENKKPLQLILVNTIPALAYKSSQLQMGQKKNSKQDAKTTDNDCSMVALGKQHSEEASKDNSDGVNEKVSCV
Assay type: cell-based
Parameters: expressed in transfected cells; host or cells: NIH3T3 cells, pSI mammalian expression vector
Source text: Receptor Selection and Amplification (R-SAT) Assays. […] The IC50 determined in the RSAT assay was converted into a Ki value using the method of Cheng and Prussoff, Biochem Pharmacol., 1973 Dec. 1; 22(23):3099-108. pKi is the negative of the log(Ki).
Molecule `CC(C)COc1ccc(CNC(=O)N(Cc2ccc(C(F)(F)F)cc2Cl)C2CCN(C)CC2)cc1` [Example 67] has a Ki of 79.4 nM.
Molecule `CC(C)COc1ccc(CNC(=O)N(Cc2ccc(C(F)(F)F)cc2F)C2CCN(C)CC2)cc1` [Example 68] has a Ki of 20 nM.
`CC(C)COc1ccc(CNC(=O)N(Cc2ccc(F)cc2N(C)C)C2CCN(C)CC2)cc1` [Example 69] was tested, and the Ki was 631 nM.
`CC(C)COc1ccc(CNC(=O)N(Cc2cc(F)c(F)cc2F)C2CCN(C)CC2)cc1` [Example 70] showed a Ki of 50.1 nM.
`CC(C)COc1ccc(CNC(=O)N(Cc2c(F)cc(Cl)cc2F)C2CCN(C)CC2)cc1` [Example 71] gave a Ki of 12.6 nM.
`CC(C)COc1ccc(CNC(=O)N(Cc2c(F)cccc2F)C2CCN(C)CC2)cc1` [Example 72] was tested, and the Ki was 15.8 nM.
With `[2H]C([2H])([2H])Oc1ccc(CNC(=O)N(Cc2ccc(F)cc2F)C2CCN(C)CC2)cc1` [Example 73, 1-[(2,4-difluorophenyl)methyl]-3-{[4-(^2H3)methoxyphenyl]methyl}-1-(1-methylpiperidin-4-yl)urea] the Ki was 6.31 nM.
`COc1cc(OC(C)C)ccc1CNC(=O)N(Cc1ccc(F)cc1F)C1CCN(C)CC1` [Example 74, 1-[(2,4-difluorophenyl)methyl]-3-{[2-methoxy-4-(propan-2-yloxy)phenyl]methyl}-1-(1-methylpiperidin-4-yl)urea] showed a Ki of 39.8 nM.
In the case of `CN1CCC(N(Cc2ccc(F)cc2F)C(=O)NCc2ccc3[nH]cnc3c2)CC1` [Example 77, 3-[(1H-1,3-benzodiazol-5-yl)methyl]-1-[(2,4-difluorophenyl)methyl]-1-(1-methylpiperidin-4-yl)urea; Trifluoroacetic Acid], the Ki is reported as 79.4 nM.
Work on `CC(C)Oc1ccc(CNC(=O)N(Cc2ccc(F)cc2F)C2CCCN(C)CC2)cc1` (centres unmarked) [Example 78, 1-[(2,4-difluorophenyl)methyl]-1-(1-methylazepan-4-yl)-3-{[4-(propan-2-yloxy)phenyl]methyl}urea; Trifluoroacetic Acid] yielded a Ki of 6.31 nM.
Molecule `CC(C)Oc1ccc(CNC(=O)N(Cc2ccc(F)cc2F)[C@@H]2CCN3CCC[C@H]3C2)cc1` [Example 80, 1-[(7R,8aS)-octahydroindolizin-7-yl]-1-[(2,4-difluorophenyl)methyl]-3-{[4-(propan-2-yloxy)phenyl]methyl}urea; Trifluoroacetic Acid] has a Ki of 2.51 nM.
For `COc1cc(F)c(F)cc1CN(C(=O)NCc1ccc(OC(C)C)cc1)C1CCNCC1` [Example 83, 3-[(4,5-difluoro-2-methoxyphenyl)methyl]-3-(piperidin-4-yl)-1-{[4-(propan-2-yloxy)phenyl]methyl}urea; Trifluoroacetic Acid], the Ki was 158 nM.
Work on `CC(C)Oc1ccc(CNC(=O)N(Cc2ccc(F)cc2F)[C@H]2C[C@H]3CC[C@@H](C2)N3C)cc1` [Example 84, 3-[(2,4-difluorophenyl)methyl]-3-[(1R,3R,5S)-8-methyl-8-azabicyclo[3.2.1]octan-3-yl]-1-{[4-(propan-2-yloxy)phenyl]methyl}urea; Trifluoroacetic Acid] yielded a Ki of 50.1 nM.
Molecule `CC(C)C(C)(O)COc1ccc(CNC(=O)N(Cc2ccc(F)cc2F)C2CCN(C)CC2)cc1` (centres unmarked) [Example 87, 1-[(2,4-difluorophenyl)methyl]-3-{[4-(2-hydroxy-2,3-dimethylbutoxy)phenyl]methyl}-1-(1-methylpiperidin-4-yl)urea; Trifluoroacetic Acid] has a Ki of 10 nM.
Work on `CN1CCC(N(Cc2ccc(F)cc2F)C(=O)NCc2ccc(COCCO)c(F)c2)CC1` [Example 88, 1-[(2,4-difluorophenyl)methyl]-3-({3-fluoro-4-[(2-hydroxyethoxy)methyl]phenyl}methyl)-1-(1-methylpiperidin-4-yl)urea; Trifluoroacetic Acid] yielded a Ki of 63.1 nM.
For `CC(C)COc1ccc(CNC(=O)N(Cc2ccc(C(F)(F)F)cc2O)C2CCN(C)CC2)cc1` [Example 90, 1-{[2-hydroxy-4-(trifluoromethyl)phenyl]methyl}-1-(1-methylpiperidin-4-yl)-3-{[4-(2-methylpropoxy)phenyl]methyl}urea; Trifluoroacetic Acid], the Ki was 12.6 nM.
With `COc1cc(F)ccc1CN(C(=O)NCc1ccc(OCC(C)C)cc1)C1CCN(C)CC1` [Example 91, 1-[(4-fluoro-2-methoxyphenyl)methyl]-1-(1-methylpiperidin-4-yl)-3-{[4-(2-methylpropoxy)phenyl]methyl}urea; Trifluoroacetic Acid] the Ki was 15.8 nM.
`CN1CCC(N(Cc2ccc(F)cc2F)C(=O)NCc2ccc3[nH]ncc3c2)CC1` [Example 93, 1-[(2,4-difluorophenyl)methyl]-3-[(1H-indazol-5-yl)methyl]-1-(1-methylpiperidin-4-yl)urea; Trifluoroacetic Acid] showed a Ki of 39.8 nM.
With `COCCCOc1ccc(CNC(=O)N(Cc2ccc(F)cc2F)C2CCN(C)CC2)cc1` [Example 96, 1-[(2,4-difluorophenyl)methyl]-3-{[4-(3-methoxypropoxy)phenyl]methyl}-1-(1-methylpiperidin-4-yl)urea; Trifluoroacetic Acid] the Ki was 10 nM.
`CN1CCC(N(Cc2ccc(F)cc2F)C(=O)NCc2ccc([N+](=O)[O-])cc2F)CC1` [Example 97, 1-[(2,4-difluorophenyl)methyl]-3-[(2-fluoro-4-nitrophenyl)methyl]-1-(1-methylpiperidin-4-yl)urea; Trifluoroacetic Acid] gave a Ki of 39.8 nM.
In the case of `CN1CCC(N(Cc2ccc(F)cc2F)C(=O)NCc2ccc(F)cc2OC(F)(F)F)CC1` [Example 99, 1-[(2,4-difluorophenyl)methyl]-3-{[4-fluoro-2-(trifluoromethoxy)phenyl]methyl}-1-(1-methylpiperidin-4-yl)urea; Trifluoroacetic Acid], the Ki is reported as 79.4 nM.
With `CN1CCC(N(Cc2ccc(F)cc2)C(=O)NCc2ccc(F)cc2F)CC1` [Example 100, 3-[(2,4-difluorophenyl)methyl]-1-[(4-fluorophenyl)methyl]-1-(1-methylpiperidin-4-yl)urea; Trifluoroacetic Acid] the Ki was 20 nM.
Molecule `CC(C)COc1ccc(CNC(=O)N(Cc2ccc(F)cc2OC(F)F)C2CCN(C)CC2)cc1` [Example 101, 1-{[2-(difluoromethoxy)-4-fluorophenyl]methyl}-1-(1-methylpiperidin-4-yl)-3-{[4-(2-methylpropoxy)phenyl]methyl}urea; Trifluoroacetic Acid] has a Ki of 79.4 nM.
For `CC(C)COc1ccc(CNC(=O)N(Cc2ccc(F)cc2OC(F)(F)F)C2CCN(C)CC2)cc1` [Example 103, 1-{[4-fluoro-2-(trifluoromethoxy)phenyl]methyl}-1-(1-methylpiperidin-4-yl)-3-{[4-(2-methylpropoxy)phenyl]methyl}urea; Trifluoroacetic Acid], the Ki was 251 nM.
Molecule `Cc1cc(F)ccc1CN(C(=O)NCc1ccc(OCC(C)C)cc1)C1CCN(C)CC1` [Example 104, 1-[(4-fluoro-2-methylphenyl)methyl]-1-(1-methylpiperidin-4-yl)-3-{[4-(2-methylpropoxy)phenyl]methyl}urea; Trifluoroacetic Acid] has a Ki of 39.8 nM.
`COc1ccc(CN(C(=O)NCc2ccc(OCC(C)C)cc2)C2CCN(C)CC2)c(Cl)c1` [Example 105, 1-[(2-chloro-4-methoxyphenyl)methyl]-1-(1-methylpiperidin-4-yl)-3-{[4-(2-methylpropoxy)phenyl]methyl}urea; Trifluoroacetic Acid] was tested, and the Ki was 100 nM.
`CC(C)Oc1ccc(CNC(=O)N(Cc2ccc(Cl)cc2Cl)C2CCN(C)CC2)cc1` [Example 106, 1-[(2,4-dichlorophenyl)methyl]-1-(1-methylpiperidin-4-yl)-3-{[4-(propan-2-yloxy)phenyl]methyl}urea; Trifluoroacetic Acid] was tested, and the Ki was 50.1 nM.
For `CC(C)Oc1ccc(CNC(=O)N(Cc2ccc(Cl)cc2Cl)C2CCNCC2)cc1` [Example 108, 1-[(2,4-dichlorophenyl)methyl]-1-(piperidin-4-yl)-3-{[4-(propan-2-yloxy)phenyl]methyl}urea; Trifluoroacetic Acid], the Ki was 79.4 nM.
`CC(C)COc1ccc(CNC(=O)N(Cc2ccc(F)cc2Cl)C2CCNCC2)cc1` [Example 109, 1-[(2-chloro-4-fluorophenyl)methyl]-3-{[4-(2-methylpropoxy)phenyl]methyl}-1-(piperidin-4-yl)urea; Trifluoroacetic Acid] showed a Ki of 25.1 nM.
Work on `CC(C)Oc1ccc(CNC(=O)N(Cc2ccc(F)cc2Cl)C2CCNCC2)cc1` [Example 110, 1-[(2-chloro-4-fluorophenyl)methyl]-1-(piperidin-4-yl)-3-{[4-(propan-2-yloxy)phenyl]methyl}urea; Trifluoroacetic Acid] yielded a Ki of 25.1 nM.
In the case of `CC(C)COc1ccc(CNC(=O)N(Cc2ccc(Cl)cc2Cl)C2CCNCC2)cc1` [Example 111, 1-[(2,4-dichlorophenyl)methyl]-3-{[4-(2-methylpropoxy)phenyl]methyl}-1-(piperidin-4-yl)urea; Trifluoroacetic Acid], the Ki is reported as 79.4 nM.
In the case of `Cc1ccc(F)c(CN(C(=O)NCc2ccc(OC(C)C)cc2)C2CCN(C)CC2)c1F` [Example 112, 1-[(2,6-difluoro-3-methylphenyl)methyl]-1-(1-methylpiperidin-4-yl)-3-{[4-(propan-2-yloxy)phenyl]methyl}urea; Trifluoroacetic Acid], the Ki is reported as 39.8 nM.
In the case of `CC(C)Oc1ccc(CNC(=O)N(Cc2c(F)ccc(F)c2F)C2CCN(C)CC2)cc1` [Example 113, 1-(1-methylpiperidin-4-yl)-3-{[4-(propan-2-yloxy)phenyl]methyl}-1-[(2,3,6-trifluorophenyl)methyl]urea; Trifluoroacetic Acid], the Ki is reported as 126 nM.
`Cc1c(F)ccc(CN(C(=O)NCc2ccc(OC(C)C)cc2)C2CCN(C)CC2)c1F` [Example 114, 1-[(2,4-difluoro-3-methylphenyl)methyl]-1-(1-methylpiperidin-4-yl)-3-{[4-(propan-2-yloxy)phenyl]methyl}urea; Trifluoroacetic Acid] gave a Ki of 6.31 nM.
`Cc1cc(OC(C)C)ccc1CNC(=O)N(Cc1ccc(F)cc1F)C1CCN(C)CC1` [Example 116, 1-[(2,4-difluorophenyl)methyl]-3-{[2-methyl-4-(propan-2-yloxy)phenyl]methyl}-1-(1-methylpiperidin-4-yl)urea; Hemitartrate] was tested, and the Ki was 63.1 nM.
